Assay results taken from patent US12077503B2, “Substituted cyclic amides and their use as herbicides” (FMC CORPORATION, priority 2015, dated 2024).

Experiments:
Type in all cases: in vivo
Kochia (Kochia scoparia) [1] = test: Test A preemergence
In short: (§1)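 In a loam soil and sand blend, planted seeds got a preemergence directed soil spray, and young plants at the one- to two-leaf stage, 2–10 cm high, got a postemergence application; ~10 d greenhouse hold; injury rated visually, 0 = none, 100 = complete control.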

[2] = system: barnyardgrass (Echinochloa crus-galli); test: Test A preemergence
In short: as §1

[3] = system: giant foxtail (Setaria faberii); test: Test A preemergence
In short: as §1

[4] = system: pigweed (Amaranthus retroflexus); test: Test A preemergence
[5] = system: ragweed (common ragweed, Ambrosia elatior); test: Test A preemergence
In short: as §1

[6] = system: ryegrass, Italian (Italian ryegrass, Lolium multiflorum); test: Test A preemergence
In short: as §1

[7] = system: Galium (catchweed bedstraw, Galium aparine); test: Test A postemergence
In short: as §1

Kochia (Kochia scoparia) [8] = test: Test A postemergence
In short: as §1

[9] = system: barnyardgrass (Echinochloa crus-galli); test: Test A postemergence
In short: as §1

[10] = system: blackgrass (Alopecurus myosuroides); test: Test A postemergence
In short: as §1

corn (Zea mays) = test: Test A postemergence
In short: as §1

[11] = system: giant foxtail (Setaria faberii); test: Test A postemergence
In short: as §1

[12] = system: pigweed (Amaranthus retroflexus); test: Test A postemergence
In short: as §1

[13] = system: ragweed (common ragweed, Ambrosia elatior); test: Test A postemergence
In short: as §1

[14] = system: ryegrass, Italian (Italian ryegrass, Lolium multiflorum); test: Test A postemergence
In short: as §1

[15] = system: wheat (Triticum aestivum); test: Test A postemergence
In short: as §1

[16] = system: barnyardgrass (Echinochloa crus-galli); test: Test B flooded paddy test; conditions: Flood; for Plant response rating, Barnyardgrass: 0 to 100 scale where 0 is no effect and 100 is complete control, 13 to 15 d
In short: (§2)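 Greenhouse paddy pots with 2-leaf stage plants received compound by direct addition to floodwater 3 cm deep, kept at that level. Scored visually at 13–15 d versus controls (0 no effect; 100 complete control).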

[17] = system: ducksalad (Heteranthera limosa); test: Test B flooded paddy test; conditions: Flood; for Plant response rating, Ducksalad: 0 to 100 scale where 0 is no effect and 100 is complete control, 13 to 15 d
In short: as §2

rice (Oryra sativa) = test: Test B flooded paddy test; conditions: Flood; for Plant response rating, Rice: 0 to 100 scale where 0 is no effect and 100 is complete control, 13 to 15 d
In short: as §2

[18] = system: sedge, umbrella (small-flower umbrella sedge, Cyperus difformis); test: Test B flooded paddy test; conditions: Flood; for Plant response rating, Sedge, Umbrella: 0 to 100 scale where 0 is no effect and 100 is complete control, 13 to 15 d
In short: as §2

[19] = 125 g ai/ha, Preemergence, visual injury after approximately 10 d, 0 to 100 scale where 0 is no effect and 100 is complete control
[20] = 500 g ai/ha, preemergence, 0 to 100 scale, 0 = no effect, 100 = complete control
[21] = 125 g ai/ha, postemergence, visual rating after approx. 10 d, 0 to 100 scale (0 no effect, 100 complete control)
[22] = Postemergence, 500 g ai/ha, 0 to 100 scale where 0 is no effect and 100 is complete control
[23] = 125 g ai/ha, preemergence, 0 to 100 scale (0 no effect, 100 complete control)
[24] = Preemergence, 500 g ai/ha, visual injury approx. 10 d
[25] = 125 g ai/ha, postemergence, visual injury rating on 0 to 100 scale (0 no effect, 100 complete control), approx. 10 d
[26] = 500 g ai/ha, postemergence, 0 to 100 scale, 0 no effect, 100 complete control
[27] = 500 g ai/ha, preemergence, 0 to 100 scale (0 no effect, 100 complete control)
[28] = Preemergence, 125 g ai/ha, 0 to 100 scale (0 no effect, 100 complete control)
[29] = Postemergence, 125 g ai/ha, visual injury after approx. 10 d, 0 to 100 scale, 0 no effect, 100 complete control
[30] = Postemergence, 500 g ai/ha, visual injury, 0 to 100 scale (0 no effect, 100 complete control), approx. 10 d
[31] = 250 g ai/ha, visually evaluated after 13 to 15 d

O=C1NCC(c2cc(F)c(F)cc2F)C1C(=O)Nc1ccc(F)c(F)c1F (stereo not drawn) [Compound 614]
65: Plant response rating, Barnyardgrass ([16]; 250 g ai/ha)
0: Plant response rating, Kochia (Kochia (Kochia scoparia) [1]; [19]) | Plant response rating, Pigweed [4, 19] | Plant response rating, Pigweed [4, 20] | Plant response rating, Ragweed [5, 19] | Plant response rating, Ragweed [5, 20] | Plant response rating, Ryegrass, Italian [6, 19] | Plant response rating, Kochia (Kochia (Kochia scoparia) [8]; [21]) | Plant response rating, Corn (corn (Zea mays); [21]) | Plant response rating, Pigweed [12, 21] | Plant response rating, Ragweed [13, 21] | Plant response rating, Ragweed [13, 22] | Plant response rating, Ryegrass, Italian [14, 21] | Plant response rating, Wheat [15, 21] | Plant response rating, Sedge, Umbrella ([18]; 250 g ai/ha)
30: Plant response rating, Galium [7, 21] | Plant response rating, Blackgrass [10, 21] | Plant response rating, Pigweed [12, 22]
20: Plant response rating, Kochia (Kochia (Kochia scoparia) [1]; [20]) | Plant response rating, Ryegrass, Italian [6, 20] | Plant response rating, Corn (corn (Zea mays); [22]) | Plant response rating, Ryegrass, Italian [14, 22]
90: Plant response rating, Barnyardgrass [2, 20] | Plant response rating, Foxtail, Giant [3, 19] | Plant response rating, Foxtail, Giant [3, 20] | Plant response rating, Barnyardgrass [9, 22] | Plant response rating, Foxtail, Giant [11, 22]
100: Plant response rating, Ducksalad ([17]; 250 g ai/ha)
40: Plant response rating, Galium [7, 22] | Plant response rating, Wheat [15, 22]
10: Plant response rating, Rice (rice (Oryra sativa); 250 g ai/ha)
50: Plant response rating, Barnyardgrass [2, 19] | Plant response rating, Kochia (Kochia (Kochia scoparia) [8]; [22])
80: Plant response rating, Barnyardgrass [9, 21] | Plant response rating, Foxtail, Giant [11, 21]
70: Plant response rating, Blackgrass [10, 22]

COc1c(F)ccc(NC(=O)C2C(=O)NCC2c2ccc(F)c(F)c2)c1F (stereo not drawn) [Compound 419]
50: Plant response rating, Ducksalad ([17]; 500 g ai/ha)
80: Plant response rating, Foxtail, Giant [3, 23] | Plant response rating, Barnyardgrass [9, 26]
0: Plant response rating, Kochia (Kochia (Kochia scoparia) [1]; [23]) | Kochia plant response rating (0 to 100 scale, 0 is no effect, 100 is complete control) (Kochia (Kochia scoparia) [1]; [24]) | Plant response rating, Pigweed [4, 23] | Plant response rating, Ragweed [5, 23] | Ragweed plant response rating (0 to 100 scale, 0 is no effect, 100 is complete control) [5, 24] | Plant response rating, Ryegrass, Italian [6, 23] | Ryegrass, Italian plant response rating (0 to 100 scale, 0 is no effect, 100 is complete control) [6, 24] | Galium plant response rating [7, 25] | Plant response rating, Galium [7, 26] | Blackgrass plant response rating [10, 25] | Plant response rating, Blackgrass [10, 26] | Corn plant response rating (corn (Zea mays); [25]) | Pigweed plant response rating [12, 25] | Plant response rating, Pigweed [12, 26] | Ragweed plant response rating [13, 25] | Plant response rating, Ragweed [13, 26] | Ryegrass, Italian plant response rating [14, 25] | Wheat plant response rating [15, 25] | Plant response rating, Rice (rice (Oryra sativa); 500 g ai/ha) | Plant response rating, Sedge, Umbrella ([18]; 500 g ai/ha)
20: Pigweed plant response rating (0 to 100 scale, 0 is no effect, 100 is complete control) [4, 24] | Kochia plant response rating (Kochia (Kochia scoparia) [8]; [25]) | Plant response rating, Kochia (Kochia (Kochia scoparia) [8]; [26]) | Plant response rating, Corn (corn (Zea mays); [26]) | Foxtail, Giant plant response rating [11, 25] | Plant response rating, Ryegrass, Italian [14, 26] | Plant response rating, Wheat [15, 26]
40: Plant response rating, Barnyardgrass ([16]; 500 g ai/ha)
90: Barnyardgrass plant response rating (0 to 100 scale, 0 is no effect, 100 is complete control) [2, 24] | Foxtail, Giant plant response rating (0 to 100 scale, 0 is no effect, 100 is complete control) [3, 24] | Plant response rating, Foxtail, Giant [11, 26]
60: Plant response rating, Barnyardgrass [2, 23] | Barnyardgrass plant response rating [9, 25]

O=C(Nc1cccc(F)c1F)C1C(=S)NCC1c1ccc(Cl)cc1 (stereo not drawn) [Compound 1387]
80: Plant response rating, Foxtail, Giant [3, 28] | Plant response rating, Barnyardgrass [9, 30] | Plant response rating, Foxtail, Giant [11, 30]
0: Plant response rating, Pigweed [4, 28] | Plant response rating, Ragweed [5, 27] | Plant response rating, Ragweed [5, 28] | Plant response rating, Ryegrass, Italian [6, 27] | Plant response rating, Ryegrass, Italian [6, 28] | Plant response rating, Kochia (Kochia (Kochia scoparia) [8]; [29]) | Plant response rating, Blackgrass [10, 29] | Plant response rating, Corn (corn (Zea mays); [29]) | Plant response rating, Pigweed [12, 29] | Plant response rating, Ragweed [13, 29] | Plant response rating, Ryegrass, Italian [14, 29] | Plant response rating, Wheat [15, 29] | Plant response rating, Wheat [15, 30] | Plant response rating, Barnyardgrass (0 to 100 scale where 0 is no effect and 100 is complete control) [16, 31] | Plant response rating, Ducksalad (0 to 100 scale where 0 is no effect and 100 is complete control) [17, 31] | Plant response rating, Rice (0 to 100 scale where 0 is no effect and 100 is complete control) (rice (Oryra sativa); [31]) | Plant response rating, Sedge, Umbrella (0 to 100 scale where 0 is no effect and 100 is complete control) [18, 31]
60: Plant response rating, Kochia (Kochia (Kochia scoparia) [1]; [27]) | Plant response rating, Pigweed [4, 27] | Plant response rating, Barnyardgrass [9, 29] | Plant response rating, Foxtail, Giant [11, 29] | Plant response rating, Pigweed [12, 30]
10: Plant response rating, Corn (corn (Zea mays); [30])
90: Plant response rating, Barnyardgrass [2, 27] | Plant response rating, Foxtail, Giant [3, 27]
40: Plant response rating, Blackgrass [10, 30] | Plant response rating, Ryegrass, Italian [14, 30]
30: Plant response rating, Kochia (Kochia (Kochia scoparia) [1]; [28]) | Plant response rating, Galium [7, 29] | Plant response rating, Ragweed [13, 30]
50: Plant response rating, Barnyardgrass [2, 28] | Plant response rating, Galium [7, 30] | Plant response rating, Kochia (Kochia (Kochia scoparia) [8]; [30])
